The values that follow come from article PMC11513924, “Addressing the Intracellular Vestibule of the Plasmodial Lactate Transporter PfFNT by p-Substituted Inhibitors Amplifies In Vitro Activity” (Journal of Medicinal Chemistry, 2024).

Where two headings read alike, the source gives them in different places.

One series relates to P. berghei. In words: P. berghei mouse model, 4 day Peters' test. Format: in vivo, Plasmodium berghei (mice). How it is done:
(§1) The animal experiments against P. berghei were carried out at the Swiss Tropical and Public Health Institute adhering to local and national regulations of laboratory animal welfare in Switzerland (awarded permission no. BL530). Protocols are regularly reviewed and revised following approval by the local authority (Amt für Lebensmittelsicherheit and Veterinärwesen Basel-Land). Female mice infected with GFP-expressing P. berghei (ANKA strain, donated by A. P. Waters and C. J. Janse, Leiden University, The Netherlands) were analyzed for in vivo efficacy of 7e and 8a as described previously.[18],[19] Parasitemia was determined using flow cytometry with a detection limit of 1 parasite in 1000 erythrocytes. Compound activity was calculated as the difference between the mean parasitemia for the control and treated groups (n = 3, each) expressed relative to the control group. 7e and 8a were suspended in 70/30 Tween 80/ethanol, diluted 10-fold with water and administered orally 4, 24, 48, and 72 h after infection. 7e was analyzed at 30, 10, and 3 mg kg^–1, 8a at 50, and 10 mg kg^–1. In vivo efficacy against P. falciparum was conducted at The Art of Discovery, TAD, Bizkaia, Spain, according to the previously described standard assay.[16],[17]

The test system of series [1] is Plasmodium falciparum 3D7 parasites. Nature of the series: P. falciparum 3D7 culture growth assay in erythrocytes (in vitro activity). Format: cell-based. The following applies: Plasmodium falciparum, 3D7, Erythrocyte; for activity at 0.05 µM / activity at 0.1 µM / activity at 0.2 µM / EC50: 48 h; for activity at 0.05 µM: read-out: % Growth at 50 nM (in vitro, 3D7); for activity at 0.1 µM: read-out: % Growth at 100 nM (in vitro, 3D7); for activity at 0.2 µM: read-out: % Growth at 200 nM (in vitro, 3D7); for EC50: read-out: EC50 (in vitro, 3D7). The gist of the method:
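Parasitemia of P. falciparum 3D7 in erythrocyte culture was measured by flow cytometry and growth expressed as % of untreated control.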

A short description of series [2]: Lipophilicity log D7.4 by HPLC (OECD guideline). Format: physicochemical. The settings on record: RP-8 HPLC column (ZORBAX Eclipse XDB-C8), pH 7.4. How it is done:
Lipophilicity was determined according to the OECD Guidelines for the Testing of Chemicals no. […]. Briefly, the test compounds plus 9 standards (4-acetylpyridine, acetanilide, acetophenone, methyl benzoate, ethyl benzoate, benzophenone, phenyl benzoate, diphenyl ether, triphenylamine) were separated by HPLC with UV detection at 220 nm (Waters HPLC 1525 with tunable absorbance detector 486) using an RP-8 column (Agilent Technologies ZORBAX Eclipse XDB-C8 4.6 × 150 mm, 5 μm) at 20 °C. Eluents A (20 mM ammonium formate, pH 7.4) and B (methanol) were used to generate a gradient profile of 80% A–100% B (0–35 min), 100% B (35–37 min), 100% B–80% A (37–42 min), and 80% A (42–55 min) at a flow rate of 0.8 mL min^–1. The dead time was determined via the injection peak caused by the solvent. The log D7.4 values were calculated by correlating the capacity factors with the known values of the standards via polynomial fitting.

Series [3] in a line: Blood levels of compound in the SCID mouse model. Format: in vivo.
The next series addresses T1, PfFNT G107S (Plasmodium falciparum, UniProt O77389, G107S).
T1 construct: expressed in transfected cells; host or cells: Saccharomyces cerevisiae (yeast transport assay; strain as for wild type, inferred from the shared method)
T1 sequence (O77389 1-309 G107S): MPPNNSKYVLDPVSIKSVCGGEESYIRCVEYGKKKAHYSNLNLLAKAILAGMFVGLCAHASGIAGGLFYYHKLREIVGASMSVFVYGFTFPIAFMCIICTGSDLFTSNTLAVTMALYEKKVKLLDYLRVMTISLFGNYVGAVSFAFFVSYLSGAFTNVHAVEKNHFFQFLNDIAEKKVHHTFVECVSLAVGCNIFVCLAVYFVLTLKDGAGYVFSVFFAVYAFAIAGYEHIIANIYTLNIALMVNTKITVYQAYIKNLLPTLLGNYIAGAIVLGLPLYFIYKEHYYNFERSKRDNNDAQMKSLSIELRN
In words: Yeast-based 14C-lactate transport assay, PfFNT G107S resistance mutant. Format: cell-based. How it is done: Lactate transport functionality of PfFNT was assayed as described before.[4] Briefly, Saccharomyces cerevisiae W303-1A jen1Δady2Δcells[32] (MATa, can1-100, ade2-loc, his3-11-15, leu2-3,-112, trp1-1-1, ura3-1, jen1::kanMX4, ady2::hphMX4) kindly provided by M. Casal expressing PfFNT was grown at 29 °C to an OD600 of 1 (±0.1). Harvested cells were resuspended to an OD600 of 50 (±5) in 50 mM HEPES/Tris, pH 6.8 (±0.1). 10–15 min prior to the assay, 80 μL of yeast suspension were added to 1 μL of DMSO with or without inhibitor in a 1.5 mL reaction tube at 18 °C. Twenty μL of L-lactate solution spiked with [1-^14C]-L-lactate (Hartmann Analytic) was added yielding a 1 mM inward gradient with 0.04 μCi label. Transport was stopped after 30 s by abrupt dilution with 1 mL of ice-cold water, vacuum filtration via GF/C filter membranes (Whatman), and washing with 7 mL of ice-cold water. The radio label was analyzed by liquid scintillation counting in 3 mL of scintillation cocktail (Rotiszint eco plus, Carl Roth) using a Packard TriCarb 2900 TR (PerkinElmer Inc.).
Transport assays in yeast were done in triplicate biological replicates. At least nine technical replicates were measured around the IC50 value, concentrations with no or full inhibition were determined from at least three technical replicates. EC50-values were determined from 2 to 4 biological replicates. IC50 and EC50 curves were fitted by the Hill equation with variable slope (Graph Pad Prism 10). Error bars denote ± SEM (for n ≥ 3) or ± range (for n = 2). For the EC50-value of 7a the error of the fitting of the curve is given. Cytotoxicity was determined from biological triplicates; error is shown as SEM.

Another series relates to P. falciparum 3D7. In words: P. falciparum 3D7 SCID mouse model, in vivo efficacy. More on the design: species or system Plasmodium falciparum (SCID mice). The following applies: oral 150 mg kg^–1 day^–1, four consecutive days, one animal. The method, then:
as §1

Setting [4] is: oral 10 mg kg^–1 day^–1, four consecutive days.

In general, EC50 refers to the midpoint of the concentration-response curve. By chromatographic logD is commonly meant a lipophilicity value derived from retention on a column. Lower therefore signals a more hydrophilic compound. In general, half-life refers to the time in which the quantity being followed falls by half. A word on the IC50: it is the concentration at which inhibition is half-maximal.

Regarding `CCCNc1ccc(C(=O)/C=C(\O)C(F)(F)C(F)(F)F)cn1` [7e, 4,4,5,5,5-Pentafluoro-3-hydroxy-1-(6-(propylamino)pyridin-3-yl)pent-2-en-1-one], the “activity (reduction of parasitemia relative to untreated)” value in the series with P. berghei (oral 3 mg kg^–1 day^–1, four consecutive days) amounted to 3.5%; with P. berghei (setting [4]), 15.4%; with P. berghei (oral 30 mg kg^–1 day^–1, four consecutive days), 34.2%. Moreover, the activity at 0.05 µM in series [1] (50 nM compound, % of untreated control) worked out at 7%. Besides, the activity at 0.1 µM in series [1] (100 nM compound, % of untreated control) came to 4%. Also, in series [1] (200 nM compound, % of untreated control), the activity at 0.2 µM is 2%. Moreover, the inhibition at 0.05 µM in series [1] (50 nM compound, 100 minus % growth, read-out: inhibitory activity at 50 nM (in vitro, 3D7)) was 93%. Besides, in series [1] (cultures in erythrocytes), the EC50 stood at 14.8 nM. Also, the chromatographic logD in series [2] stood at 3.18. Besides, the “blood concentration (peak)” value in series [3] (oral 4 × 50 mg kg^–1) is listed as roughly 2 μg mL^–1. Also, the half-life in series [3] (whole blood, oral 4 × 50 mg kg^–1, read-out: half-life from modeled blood profile) was in the range of 2 to 4 h. In addition, the IC50 at PfFNT G107S was 630 nM. Moreover, the “effect on parasite load” value with P. falciparum 3D7 is listed as “decreased the parasite load below the starting parasitemia”.

For the compound `CC(=O)Nc1ccc(C(=O)/C=C(\O)C(F)(F)C(F)(F)F)cn1` [8a, N-[5-(4,4,5,5,5-Pentafluoro-3-hydroxypent-2-enoyl)pyridin-2-yl]acetamide], in the series with P. berghei (setting [4]), the “activity (reduction of parasitemia relative to untreated)” value stood at 76.0%. The “activity (parasites cleared)” value in the series on P. berghei (oral 50 mg kg^–1 day^–1, four consecutive days) turned out to be 99.7%. Besides, in series [1], the activity at 0.05 µM amounted to 50%, the activity at 0.1 µM turned out to be 23%, the activity at 0.2 µM came to 8% and the EC50 worked out at 49.8 nM. In series [2], this compound displayed a chromatographic logD of 1.7. Besides, half-maximal inhibition against PfFNT G107S (IC50) was put at 12000 nM.
